We go through 16 compounds from US8148373B2, “Compounds” (AstraZeneca AB, priority 2008, dated 2012).

Test [1] has as its target T1, human muscarinic acetylcholine M3 receptor (M3-ACh) (Homo sapiens, UniProt P20309).
T1 construct: expressed in transfected cells; host or cells: CHO-K1 (Chinese Hamster Ovary) cell membranes
The test can be described thus: Muscarinic 3 Receptor Binding Assay ([3H]NMS competition, SPA). As to conditions: [3H]NMS 0.1 nM, CHO-K1 cell membranes, 16 hours at room temperature; read-out: M3 pIC50 (converted). The gist of the method: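 Competition SPA binding of 0.1 nM [3H]NMS (quarter Kd) to membranes from CHO-K1 cells expressing human M3, in 20 mM HEPES pH 7.4, 5 mM MgCl2, 1% DMSO. Incubated 16 h at room temperature; non-specific binding with 1 µM atropine. pIC50 from 50% reduction of specific binding.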

Test [2] has as its target T2, Adrenergic β2 (H292 cells) (Homo sapiens, UniProt P07550).
T2 construct: endogenous in cells; host or cells: H292 cells
The test is described as follows: Assay for Adrenergic β2 Mediated cAMP Production (concentration response, AlphaScreen cAMP detection). The test is classed as cell-based. As to conditions: for EC50: cAMP production, 60 minutes at room temperature, 300 μM rolipram, read-out: β2 pEC50 (converted); for β2 Intrinsic activity: fraction relative to the maximum activity determined for formoterol. Summed up:
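H292 cells plated overnight, pre-treated with rolipram (300 μM final) 10 min, then compound 60 min at room temperature in HBSS/10 mM HEPES pH7.4/5 mM glucose, 1% DMSO. Lysate cAMP read by AlphaScreen against a cAMP standard curve; 4-parameter fit gives pEC50 and intrinsic activity as fraction of formoterol maximum.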

T2 sequence (P07550 whole entry): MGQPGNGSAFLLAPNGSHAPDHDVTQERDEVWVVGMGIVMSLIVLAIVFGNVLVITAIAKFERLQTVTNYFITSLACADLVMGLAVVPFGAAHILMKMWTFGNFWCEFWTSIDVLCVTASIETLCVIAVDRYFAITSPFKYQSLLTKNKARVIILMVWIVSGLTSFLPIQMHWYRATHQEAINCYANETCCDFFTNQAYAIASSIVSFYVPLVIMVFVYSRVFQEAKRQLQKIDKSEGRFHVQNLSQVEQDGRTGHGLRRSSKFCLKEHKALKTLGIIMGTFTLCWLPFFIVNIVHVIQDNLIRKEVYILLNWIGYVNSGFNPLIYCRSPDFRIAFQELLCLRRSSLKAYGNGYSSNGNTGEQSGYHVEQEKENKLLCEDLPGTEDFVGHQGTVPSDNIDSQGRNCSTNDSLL
T1 sequence (P20309 whole entry): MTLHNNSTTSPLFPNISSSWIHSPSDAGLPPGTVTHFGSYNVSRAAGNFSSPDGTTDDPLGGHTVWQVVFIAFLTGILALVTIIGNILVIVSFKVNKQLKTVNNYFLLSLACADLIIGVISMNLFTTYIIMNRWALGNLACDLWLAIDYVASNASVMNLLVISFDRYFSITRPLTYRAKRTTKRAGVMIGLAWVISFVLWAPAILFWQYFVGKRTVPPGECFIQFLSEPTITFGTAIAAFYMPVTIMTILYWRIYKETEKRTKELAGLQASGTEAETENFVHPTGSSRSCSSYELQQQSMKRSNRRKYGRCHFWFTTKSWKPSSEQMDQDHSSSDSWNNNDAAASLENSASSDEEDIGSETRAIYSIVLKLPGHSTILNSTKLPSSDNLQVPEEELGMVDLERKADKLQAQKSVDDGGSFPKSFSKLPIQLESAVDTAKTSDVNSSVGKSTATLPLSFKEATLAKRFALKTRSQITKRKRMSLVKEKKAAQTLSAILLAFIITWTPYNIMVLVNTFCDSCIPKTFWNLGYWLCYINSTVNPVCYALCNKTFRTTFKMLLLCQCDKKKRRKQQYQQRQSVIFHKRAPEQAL

Turning to `CCCc1nc(C(=O)N2CCOC3(CCN(Cc4cc(F)cc(CCNC[C@H](O)c5ccc(O)c6[nH]c(=O)sc56)c4)CC3)C2)cs1` [Example 56, (R)-7-(2-(3-Fluoro-5-((4-(2-propylthiazole-4-carbonyl)-1-oxa-4,9-diazaspiro[5.5]undecan-9-yl)methyl)phenethylamino)-1-hydroxyethyl)-4-hydroxybenzo[d]thiazol-2(3H)-one ditrifluoroacetate], in test [1], the IC50 was 2.51 nM. Also, in test [2], the EC50 is 7.94 nM and the “β2 Intrinsic activity” value was found to be 1.

As for `O=C(c1csc(C2CC2)n1)N1CCOC2(CCN(Cc3cc(F)cc(CCNC[C@H](O)c4ccc(O)c5[nH]c(=O)sc45)c3)CC2)C1` [Example 57, (R)-7-(2-(3-((4-(2-Cyclopropylthiazole-4-carbonyl)-1-oxa-4,9-diazaspiro[5.5]undecan-9-yl)methyl)-5-fluorophenethylamino)-1-hydroxyethyl)-4-hydroxybenzo[d]thiazol-2(3H)-one ditrifluoroacetate], in test [1], the IC50 was 0.794 nM. Further, in test [2], the EC50 was 6.31 nM and the “β2 Intrinsic activity” value is given as 1.1.

For the compound `O=C(c1csc(C2CCC2)n1)N1CCOC2(CCN(Cc3cc(F)cc(CCNC[C@H](O)c4ccc(O)c5[nH]c(=O)sc45)c3)CC2)C1` [Example 58, (R)-7-(2-(3-((4-(2-Cyclobutylthiazole-4-carbonyl)-1-oxa-4,9-diazaspiro[5.5]undecan-9-yl)methyl)-5-fluorophenethylamino)-1-hydroxyethyl)-4-hydroxybenzo[d]thiazol-2(3H)-one ditrifluoroacetate], the IC50 in test [1] was 6.31 nM. Also, in test [2], the EC50 was 10 nM and the “β2 Intrinsic activity” value was determined as 0.9.

Turning to `O=C(c1csc(C2CCCC2)n1)N1CCOC2(CCN(Cc3cc(F)cc(CCNC[C@H](O)c4ccc(O)c5[nH]c(=O)sc45)c3)CC2)C1` [Example 59, (R)-7-(2-(3-((4-(2-Cyclopentylthiazole-4-carbonyl)-1-oxa-4,9-diazaspiro[5.5]undecan-9-yl)methyl)-5-fluorophenethylamino)-1-hydroxyethyl)-4-hydroxybenzo[d]thiazol-2(3H)-one ditrifluoroacetate], in test [1], the IC50 is 7.94 nM. Moreover, in test [2], the EC50 is 15.8 nM and the “β2 Intrinsic activity” value worked out at 1.

Turning to `Cc1csc(C(=O)N2CCOC3(CCN(Cc4cc(F)cc(CCNC[C@H](O)c5ccc(O)c6[nH]c(=O)sc56)c4)CC3)C2)c1` [Example 60, (R)-7-(2-(3-Fluoro-5-((4-(4-methylthiophene-2-carbonyl)-1-oxa-4,9-diazaspiro[5.5]undecan-9-yl)methyl)phenethylamino)-1-hydroxyethyl)-4-hydroxybenzo[d]thiazol-2(3H)-one ditrifluoroacetate], the IC50 in test [1] was 3.98 nM. For the same compound, in test [2], the EC50 is 5.01 nM and the “β2 Intrinsic activity” value came out at 1.

On to `CC(C)c1nc(C(=O)N2CCOC3(CCN(Cc4cc(CCNC[C@H](O)c5ccc(O)c6[nH]c(=O)sc56)ccc4Cl)CC3)C2)cs1` [Example 61, (R)-7-(2-(4-Chloro-3-((4-(2-isopropylthiazole-4-carbonyl)-1-oxa-4,9-diazaspiro[5.5]undecan-9-yl)methyl)phenethylamino)-1-hydroxyethyl)-4-hydroxybenzo[d]thiazol-2(3H)-one ditrifluoroacetate], for which the IC50 in test [1] was 5.01 nM. In test [2], the EC50 is 63.1 nM and the “β2 Intrinsic activity” value is reported as 0.9.

As to `CC(C)c1nc(C(=O)N2CCOC3(CCN(Cc4cccc5c(CNC[C@H](O)c6ccc(O)c7[nH]c(=O)sc67)cccc45)CC3)C2)cs1` [Example 62, (R)-4-Hydroxy-7-(1-hydroxy-2-((5-((4-(2-isopropylthiazole-4-carbonyl)-1-oxa-4,9-diazaspiro[5.5]undecan-9-yl)methyl)naphthalen-1-yl)methylamino)ethyl)benzo[d]thiazol-2(3H)-one ditrifluoroacetate], the IC50 in test [1] was 251 nM. Further, in test [2], the EC50 is 251 nM and the “β2 Intrinsic activity” value is reported as 0.9.

For `Cc1ccc(S(=O)(=O)N2CCOC3(CCN(Cc4cc(F)cc(CCNC[C@H](O)c5ccc(O)c6[nH]c(=O)sc56)c4)CC3)C2)s1` [Example 63, (R)-7-(2-(3-Fluoro-5-((4-(5-methylthiophen-2-ylsulfonyl)-1-oxa-4,9-diazaspiro[5.5]undecan-9-yl)methyl)phenethylamino)-1-hydroxyethyl)-4-hydroxybenzo[d]thiazol-2(3H)-one ditrifluoroacetate], in test [1], the IC50 was above 1000 nM. For the same compound, in test [2], the EC50 was 5.01 nM and the “β2 Intrinsic activity” value is 1.

In the case of `CC(C)c1nc(C(=O)N2CCOC3(CCN(Cc4cccc(OCCNC[C@H](O)c5ccc(O)c6[nH]c(=O)sc56)c4)CC3)C2)cs1` [Example 64, (R)-4-Hydroxy-7-(1-hydroxy-2-(2-(3-((4-(2-isopropylthiazole-4-carbonyl)-1-oxa-4,9-diazaspiro[5.5]undecan-9-yl)methyl)phenoxy)ethylamino)ethyl)benzo[d]thiazol-2(3H)-one ditrifluoroacetate], the IC50 in test [1] is 0.2 nM. In addition, in test [2], the EC50 was 50.1 nM and the “β2 Intrinsic activity” value is reported as 0.9.

Take `CC(C)c1nc(C(=O)N2CCOC3(CCN(Cc4cccc(SCCNC[C@H](O)c5ccc(O)c6[nH]c(=O)sc56)c4)CC3)C2)cs1` [Example 65, (R)-4-Hydroxy-7-(1-hydroxy-2-(2-(3-((4-(2-isopropylthiazole-4-carbonyl)-1-oxa-4,9-diazaspiro[5.5]undecan-9-yl)methyl)phenylthio)ethylamino)ethyl)benzo[d]thiazol-2(3H)-one ditrifluoroacetate]: the IC50 in test [1] is 0.631 nM. Besides, in test [2], the EC50 was 100 nM and the “β2 Intrinsic activity” value was found to be 0.9.

Consider `CC(C)c1csc(C(=O)N2CCOC3(CCN(Cc4cccc(CCNC[C@H](O)c5ccc(O)c6[nH]c(=O)sc56)c4)CC3)C2)n1` [Example 66, (R)-4-Hydroxy-7-(1-hydroxy-2-(3-((4-(4-isopropylthiazole-2-carbonyl)-1-oxa-4,9-diazaspiro[5.5]undecan-9-yl)methyl)phenethylamino)ethyl)benzo[d]thiazol-2(3H)-one ditrifluoroacetate], for which the IC50 in test [1] is 0.794 nM. Further, in test [2], the EC50 is 15.8 nM and the “β2 Intrinsic activity” value was 0.9.

On to `O=C(c1csc(CC(F)(F)F)n1)N1CCOC2(CCN(Cc3cccc(CCNC[C@H](O)c4ccc(O)c5[nH]c(=O)sc45)c3F)CC2)C1` [Example 67, (R)-7-(2-(2-Fluoro-3-((4-(2-(2,2,2-trifluoroethyl)thiazole-4-carbonyl)-1-oxa-4,9-diazaspiro[5.5]undecan-9-yl)methyl)phenethylamino)-1-hydroxyethyl)-4-hydroxybenzo[d]thiazol-2(3H)-one ditrifluoroacetate], for which the IC50 in test [1] was 3.16 nM. Also, in test [2], the EC50 is 15.8 nM and the “β2 Intrinsic activity” value is 0.9.

Regarding `O=C(c1ccc2sccc2c1)N1CCOC2(CCN(Cc3cccc(CCNC[C@H](O)c4ccc(O)c5[nH]c(=O)sc45)c3F)CC2)C1` [Example 68, (R)-7-(2-(3-((4-(Benzo[b]thiophene-5-carbonyl)-1-oxa-4,9-diazaspiro[5.5]undecan-9-yl)methyl)-2-fluorophenethylamino)-1-hydroxyethyl)-4-hydroxybenzo[d]thiazol-2(3H)-one ditrifluoroacetate], the IC50 in test [1] was 25.1 nM. Further, in test [2], the EC50 was 6.31 nM and the “β2 Intrinsic activity” value is reported as 0.8.

As to `Cc1sc(C(C)C)nc1C(=O)N1CCOC2(CCN(Cc3cccc(CCNC[C@H](O)c4ccc(O)c5[nH]c(=O)sc45)c3F)CC2)C1` [Example 69, (R)-7-(2-(2-Fluoro-3-((4-(2-isopropyl-5-methylthiazole-4-carbonyl)-1-oxa-4,9-diazaspiro[5.5]undecan-9-yl)methyl)phenethylamino)-1-hydroxyethyl)-4-hydroxybenzo[d]thiazol-2(3H)-one ditrifluoroacetate], in test [1], the IC50 was 20 nM. In addition, in test [2], the EC50 is 15.8 nM and the “β2 Intrinsic activity” value is recorded as 0.9.

With `CC(C)c1cc(C(=O)N2CCOC3(CCN(Cc4cccc(CCNC[C@H](O)c5ccc(O)c6[nH]c(=O)sc56)c4F)CC3)C2)cs1` [Example 70, (R)-7-(2-(2-Fluoro-3-((4-(5-isopropylthiophene-3-carbonyl)-1-oxa-4,9-diazaspiro[5.5]undecan-9-yl)methyl)phenethylamino)-1-hydroxyethyl)-4-hydroxybenzo[d]thiazol-2(3H)-one ditrifluoroacetate], the IC50 in test [1] was 3.16 nM. In test [2], the EC50 is 7.94 nM and the “β2 Intrinsic activity” value turned out to be 0.8.

With `CCC(CC)c1nc(C(=O)N2CCOC3(CCN(Cc4cccc(CCNC[C@H](O)c5ccc(O)c6[nH]c(=O)sc56)c4F)CC3)C2)cs1` [Example 71, (R)-7-(2-(2-Fluoro-3-((4-(2-(pentan-3-yl)thiazole-4-carbonyl)-1-oxa-4,9-diazaspiro[5.5]undecan-9-yl)methyl)phenethylamino)-1-hydroxyethyl)-4-hydroxybenzo[d]thiazol-2(3H)-one ditrifluoroacetate], the IC50 in test [1] is 5.01 nM. Moreover, in test [2], the EC50 is 20 nM and the “β2 Intrinsic activity” value amounted to 0.8.
